Drawing on a melting point compilation (Tetko et al.; mined from patent text by program, amines drawn as free bases though some values may be those of a salt), this text covers melting point for 86 compounds.

Consider `Cc1nc(NC(=O)c2cnn3c(C(F)F)cc(-c4ccc(C(F)(F)F)cc4)nc23)sc1S(=O)(=O)NCCN(C)C`, for which the melting point is 217 °C.

In turn, `COC(=O)C(=O)Nc1ccc2c3c(n(CCCNC(=O)OC(C)(C)C)c(=O)c2c1)-c1ccccc1C3=O` gave a melting point of 157 to 159 °C.

The compound `CS(=O)(=O)c1ccc(C2=C(c3ccccc3)CCC2)cc1` yielded a melting point of 136 to 137 °C.

Regarding `CC(C)(C)NC(=S)Nc1cc(Cl)cc(Cl)c1`, the melting point lay in the range of 164 to 165 °C.

`CCCCCCCCCCCCCCCCCCOc1cc(N(CC(=O)O)CC(=O)O)cc(S(C)=O)c1` (stereo unspecified) registered a melting point of 147 to 149 °C.

As for `CCOP(=O)(CCNC(=O)c1c(CC)nc2cc(OC)c(OC)cc2c1-c1ccc(OC)c(OC)c1)OCC`, the melting point was 157 to 158 °C.

In turn, `Cc1cc(C)c(Nc2nc(C)ncc2S(=O)(=O)c2ccc(OCc3ccccc3)cc2)c(C)c1` came in with a melting point of 166 to 168 °C.

`CC(C)[C@@H]1C[C@@H]([C@H](C[C@H](C(=O)N2C(=O)OC[C@@H]2Cc2ccccc2)C(C)C)N=[N+]=[N-])OC1=O` had a melting point of 102 to 103 °C.

On to `O=C1Cn2ncnc2-c2cc(F)ccc2N1`, for which the melting point was 232 to 238 °C.

With `CCc1c(-c2ccc(OCc3ccccc3)cc2)c2cc(C(=O)OC)c3cccc1n32`, the melting point lay in the range of 129 to 131 °C.

Turning to `COC(=O)c1ccccc1NC(=O)CCl`, the melting point lay within 97 to 99 °C.

On to `CCOC(=O)c1c(CC(=O)O)n(-c2ccc(OC(C)C)cc2)c2ccc(Oc3nc(C)ccc3C#N)cc12`, for which the melting point is 179 °C.

For the compound `CCOC(=O)c1ccc(-c2ccc(-c3ccccc3OC)c(-c3ccc4c(c3)C(C)(C)CCC4(C)C)c2)cc1`, the melting point lay within 133 to 136 °C.

For the compound `OCCSc1c(Cl)c(Cl)c(SCCO)c(Cl)c1Cl`, the melting point was 149 to 152 °C.

Take `Cc1ccc(S(=O)(=O)c2nc(Cl)c([N+](=O)[O-])s2)cc1`: the melting point lay in the range of 153 to 154 °C.

For the compound `O=C(Cc1ccc(Cl)cc1Cl)N1CCN(c2cnccn2)CC1`, the melting point is 124 to 125 °C.

`COc1ncnc(N2CCCC2)c1Cc1cccc(F)c1`: the melting point lay within 74 to 76 °C.

The compound `CCCCc1nc(C2CCCCC2)n(Cc2ccc(-c3ccccc3-c3ncn[nH]3)cc2)n1` came in with a melting point of 158 to 160 °C.

In the case of `CCCCC[C@@H](COc1ccc(C(=O)O)cc1)c1ccc2c(c1)C(C)(C)CCC2(C)C`, the melting point is 74 to 76 °C.

Take `CNc1nnc(SCc2ccccn2)s1`: the melting point lay within 73 to 75 °C.

The compound `CC(C)(C)OC(=O)NCC(O)c1ccsc1` (stereo unspecified) yielded a melting point of 103 to 105 °C.

As for `O=C(O)c1ccc(COCc2csc3nc(C(=O)NCc4ccc(Cl)c(Cl)c4)[nH]c(=O)c23)cc1`, the melting point was 252 to 253 °C.

`CC(=O)SCC(Cc1ccccc1)C(=O)Nc1ccc(Cl)c(C(=O)O)c1` (stereo unspecified) displayed a melting point of 163 to 165 °C.

The compound `CCOC(=O)c1c[nH]c(Br)c1-c1ccc(Cl)cc1` registered a melting point of 161 to 164 °C.

In turn, `Cc1csc2ccc3[nH]c4c(c3c12)CNCC4` displayed a melting point of 234 °C.

`Clc1ccc2nc(CN3CCN(c4ccc(Cl)c(Cl)c4)CC3)cn2c1` showed a melting point of 122 to 124 °C.

`CCOC(=O)c1cc(S)n2c(C)nnc2n1` gave a melting point of 206 to 208 °C.

`CS(=O)(=O)NCC(=O)CCN1CCC(C2c3ncc(Br)cc3CCc3cc(Cl)cc(Cl)c32)CC1` (single isomer, unassigned; (+)) displayed a melting point of 110 to 113 °C.

In the case of `C#Cc1ccc2c(c1)C(c1ccccn1)=NCc1c(C(=O)N(C)C)ncn1-2`, the melting point was in the range of 193 to 194 °C.

For the compound `Cc1nc(C)c(Cl)c(NCc2ccc(O)c(OC(F)F)c2)n1`, the melting point was 167 to 168 °C.

The compound `COc1cc(-c2cc(=O)c3ccc(OCC(O)CNC(C)C)cc3o2)cc(OC)c1OC` (stereo unspecified) showed a melting point of 106 to 107 °C.

As for `CCCn1cnc2c1c1nnc(-c3ccccc3)n1c(=O)n2CCC`, the melting point lay within 215 to 217 °C.

`O=C(O)c1c2c(nc3ccc(F)cc13)-c1ccc(-c3cccc(F)c3)cc1CCC2` showed a melting point of over 300 °C.

Compound `COc1ccc2cccc(CCN3C(=O)c4ccccc4C3=O)c2c1` yielded a melting point of 154 °C.

Compound `OC(CCCl)COc1ccc(Cl)cc1` (stereo unspecified) returned a melting point of 62 to 64 °C.

In the case of `N#Cc1ccccc1-c1ccc(CCl)cn1`, the melting point lay in the range of 97 to 98 °C.

As for `COc1cc(NC(=O)OC(C)(C)C)c(Cl)c(OC)c1`, the melting point was in the range of 94.5 to 95.5 °C.

In turn, `N#Cc1nc2cccc(O)c2s1` came in with a melting point of 225 °C.

As to `Cc1nc2cc(NC(=O)c3cc4cc(C(F)(F)F)cnc4n3Cc3cccc(F)c3)ccc2s1`, the melting point lay in the range of 204 to 206 °C.

As to `O=C1Cc2c(Cl)cccc2Sc2cc(F)ccc21`, the melting point is 109 to 111 °C.

Compound `CCOC(=O)c1csc2cc(O)ccc12` returned a melting point of 128 to 129 °C.

`CCOC(=O)c1cn(-c2nc(NCc3ccc(OC)cc3)c(F)cc2F)c2c(F)c(F)c(F)c(NCc3ccccc3)c2c1=O` registered a melting point of 146 to 148 °C.

The compound `CS(=O)(=O)c1ccc(-n2nc(-c3ccc(F)cc3)cc2C(F)(F)F)cc1` showed a melting point of 158 to 160 °C.

`COc1ccc(CC2CCN(C(=O)C(=O)Nc3ccc(NS(C)(=O)=O)cc3)CC2)cc1` yielded a melting point of 206 to 208 °C.

On to `O=C(c1ccc(O)cc1)c1cccc2[nH]ccc12`, for which the melting point stood at 177 °C.

The compound `CCCc1c2oc(C#N)cc(=O)c2cc2c(=O)cc(C(=O)OCC)oc12` displayed a melting point of 182 to 184 °C.

With `COc1ccc(CN2C(C(=O)Nc3ccccn3)=C(O)c3sc4ccccc4c3S2(=O)=O)cc1`, the melting point was 188 to 190 °C.

In turn, `Cc1oc(-c2ccco2)nc1COc1ccc(COc2nn(Cc3ccccc3)cc2C=O)cc1` displayed a melting point of 118 to 119 °C.

`Cc1ccc2c(c1)C=C(C(=O)O)C(C(F)(F)F)S2` (stereo unspecified) returned a melting point of 181 to 184 °C.

`O=C1C(c2cccc(Br)c2)n2cncc2CN1Cc1ccccn1` (stereo unspecified) came in with a melting point of 52 to 56 °C.

`CC(C)c1nc(-c2ccccc2Cc2ccccc2)cc(-c2ccc(F)cc2)c1CO` returned a melting point of 122 to 124 °C.

`CCS(=O)(=O)c1ccc(Oc2ccc(Cl)c(Cl)c2)nc1` showed a melting point of 117 to 118 °C.

The compound `CC(C)(C)OC(=O)Nc1ccc(-c2cc(F)ccc2F)cc1[N+](=O)[O-]` registered a melting point of 104 °C.

`CC(C)(C)COc1ccc(NC(=O)c2cnn(-c3ccc(F)cc3)c2Cl)cc1C#N` came in with a melting point of 149 to 150 °C.

`Cc1cc(Oc2ccc(S(C)(=O)=O)nc2)cc2cc(C3=NCC(CC(=O)NC[C@@H](C)O)S3)[nH]c12` (stereo partly specified) yielded a melting point of 168 to 169 °C.

Compound `CC(=O)N1CCC(Oc2ccc(N(C)C)cc2)CC1` displayed a melting point of 78 to 80 °C.

`CNC(=C[N+](=O)[O-])NCCSCc1cc(OC)ccn1` had a melting point of 107 to 108 °C.

As to `CC(C)(C)c1cc2c(s1)C(=O)N(c1cccc(Br)c1CO)C2`, the melting point lay within 55 to 56 °C.

`CSc1nnc(CNc2c(C)csc2C)n1C` came in with a melting point of 92 to 96 °C.

Consider `CC1CCN(c2ccc([N+](=O)[O-])cc2C(=O)c2ccccc2Cl)CC1`, for which the melting point was determined as 84 °C.

As for `CCCNC(=O)C1(CCCCN2CCC(NC(=O)OC(C)(C)C)CC2)c2ccccc2-c2ccccc21`, the melting point was 118 to 120 °C.

`Cc1c(NC(=O)c2ccc(-c3ccc(F)cc3)cc2F)ccc2cc(CN3CCCCCC3)cnc12` returned a melting point of 159 to 160 °C.

The compound `CN(C)C(=O)C(c1ccc(N)cc1)C1(O)CCCCC1` (stereo unspecified) displayed a melting point of 169 to 170 °C.

The compound `CCC1c2ccc(C#N)n2-c2ccc(F)cc2N1S(=O)(=O)c1ccc(OC)c(C)c1` (stereo unspecified) displayed a melting point of 196 to 199 °C.

In turn, `NC(=O)c1[nH]c2ccc(Cl)cc2c1S(=O)(=O)c1ccccn1` returned a melting point of 244 to 246 °C.

`CCCCCCOCC1CN(c2cc3c(cc2F)c(=O)c(C(=O)O)cn3CC)CCN1C` (stereo unspecified): the melting point was in the range of 172 to 174 °C.

In turn, `COc1nc2ccccc2c2c1ncn2CC(C)C` showed a melting point of 111 to 114 °C.

Consider `Cc1cc(-n2nc(C#N)cc2-c2ccc(S(C)(=O)=O)cc2)ccc1Cl`, for which the melting point lay in the range of 163 to 164 °C.

For the compound `CC(=O)Nc1c(C(=O)c2ccco2)[nH]c2cc(Cl)ccc12`, the melting point was 227 to 228 °C.

Compound `COC(=O)c1ccc(C(N)=O)cc1Cl` registered a melting point of 154 to 156 °C.

In turn, `O=c1oc(=O)n(Cc2ccc(F)cc2)c2ccc(F)cc12` registered a melting point of 107 °C.

For `Cn1c(C(F)(F)F)cc(=O)n(-c2ccc([N+](=O)[O-])cc2F)c1=O`, the melting point is 135 to 136 °C.

The compound `Cn1cc(C(=O)c2cnc[nH]2)cc1C(=O)c1ccc(Cl)cc1` gave a melting point of 198 to 200 °C.

As to `O=C(NCc1ccc(Cl)cc1)c1cnc2ccc(I)cc2c1O`, the melting point is 297 to 299 °C.

Consider `Cc1ccc(-c2ccc(C(=O)Nc3ccc4cc(CN5CCCC5)cnc4c3C)c(F)c2)cc1`, for which the melting point lay within 180 to 182 °C.

For `CCOC(=NC(=O)c1ccco1)N1Cc2ccccc2-c2ccccc2C1`, the melting point was in the range of 87 to 92 °C.

As to `O=C(O)COc1cccc2c(CCS(=O)(=O)C(c3ccccc3)c3ccccc3)coc12`, the melting point lay within 177 to 179 °C.

The compound `Cc1c(C)c2c(c(C)c1N)CC(C)(CN1C(=O)c3ccccc3C1=O)O2` (stereo unspecified) returned a melting point of 147 to 150 °C.

Compound `CC(C)NC(=O)CN1CCN(c2nnc(N)[nH]2)CC1` registered a melting point of 225 to 226 °C.

For `O=C(O)CCCc1ccc(-c2ccccc2)cc1`, the melting point lay within 118 to 119 °C.

The compound `COc1ccc(-n2cnc3ccc(-c4nnc(SCc5cccc(C#N)c5)o4)cc32)cc1` displayed a melting point of 157 to 158 °C.

The compound `O=C(NCc1ccccc1)c1ccccc1I` returned a melting point of 122 to 123 °C.

`C[C@@H]1[C@H](c2ccccc2)OC(=O)N1C(=O)CC1c2ccccc2C=Cc2ccccc21` yielded a melting point of 172 to 173 °C.

`CC(C)c1cccc(C(C)C)c1NC(=O)CC(=O)c1ccccc1` had a melting point of 124 to 126 °C.

Consider `Cc1ccc(-c2ccc3c(c2)C=C(C(=O)Nc2ccc(CS(=O)Cc4ccccc4)cc2)CCO3)cc1` (stereo unspecified), for which the melting point fell in the range of 208 to 209 °C.

Compound `O=C(NCC1CC1)c1c(NC(=O)c2cc(C(F)(F)F)nn2-c2ncccc2Cl)c(Cl)cc2cn[nH]c12` had a melting point of over 250 °C.
